Converted amounts (≈) assume the structure as drawn.
Legend:
Chrysoperla externa = test: LR50; higher = less toxic; conditions: not reported; mortality
Typhlodromus pyri = test: LR50; higher = less toxic; conditions: not reported; mortality
Pimephales promelas = conditions: chronic/long-term; duration: 35 days
Rattus norvegicus = conditions: oral
Canidae = conditions: chronic; duration: 1 years; oral; Dog Other; body weight
Tagia sp. = conditions: chronic/long-term; reproduction
Oryctolagus sp. = conditions: reproduction developmental; mortality
Colinus virginianus = conditions: reproduction developmental
Apis mellifera = conditions: acute, mortality
Ictalurus punctatus = conditions: acute; duration: 96 hours; mortality
Anas platyrhynchos = conditions: acute; oral; unspecified; mortality
Daphnia magna = conditions: chronic/long-term; duration: 21 days; reproduction

CCOC(=O)C1CC(=O)C(=C(O)C2CC2)C(=O)C1 (centres undefined) [Trinexapac-ethyl] was tested, and the LR50 (Chrysoperla externa) was over 400 g/ha, the LR50 (Typhlodromus pyri) was over 15 g/ha and the NOEC (Pimephales promelas) was 0.41 mg/L. For the same compound, the LD50 (Rattus norvegicus; acute, mortality) was 4210 mg/kg-day, the NOAEL (Rattus norvegicus; subchronic, duration: 90 days, body weight) was at most 34 mg/kg-day and the NOAEL (Canidae) was 32 mg/kg-day. The NOEC (Tagia sp.) was 81.9 mg/kg, the NOAEL (Oryctolagus sp.) was 60 mg/kg-day and the NOEL (Colinus virginianus) was 17.6 mg/kg-day. For the same compound, the LD50 (Apis mellifera; dermal) was over 100 µg/piece, the LD50 (Apis mellifera; oral, unspecified) was over 83 µg/piece and the LC50 (Ictalurus punctatus) was 35 µg/mL (≈ 139 µM). For the same compound, the LD50 (Anas platyrhynchos) was over 2000 mg/kg-day and the NOEC (Daphnia magna) was 2.4 mg/L.

Reference: EPA's ToxValDB 9.5 (doi:10.2903/j.efsa.2018.5229)
